Assay results reported in the NIST ThermoML archive (doi:10.1016/j.jct.2014.12.020).

Assay: wn = mass fraction of the nth substance listed
Settings: 100 kPa, Liquid; for viscosity: Concentric cylinders viscometry; for mass density: Vibrating tube method

CCCCCC(=O)[O-].C[N+](C)(C)CCO [2-hydroxy-N,N,N-trimethylethanaminium hexanoate] + O
Settings	mass density, w2 = 0.058 [kg/m3]	mass density, w2 = 0.091 [kg/m3]	mass density, w2 = 0.161 [kg/m3]	mass density, w2 = 0.198 [kg/m3]	viscosity, w2 = 0.058 [mPa·s]	viscosity, w2 = 0.091 [mPa·s]	viscosity, w2 = 0.161 [mPa·s]	viscosity, w2 = 0.198 [mPa·s]
293.15 K	1018	1021	1026	1026	1187.4	640.3	202.1	166.8
298.15 K	1015	1018	1023	1023	831.9	462.6	151.2	125.3
303.15 K	1012	1015	1020	1021	598.1	340.7	114.8	95.6
308.15 K	1009	1012	1017	1018	439	255.5	88.6	74.1
313.15 K	1007	1009	1014	1015	328.4	195.3	69.7	58.4
318.15 K	1004	1006	1011	1012	249.1	150.8	55.1	46.4
323.15 K	1001	1003	1008	1009	192.3	118.4	44.3	37.5
328.15 K	998	1001	1005	1006	150.4	94.1	36.1	30.6
333.15 K	996	998	1003	1003	119.5	76	29.8	25.3
338.15 K	993	995	1000	1000	95.6	61.7	24.7	21
343.15 K	990	992	997	997	77.6	50.7	20.7	17.7
